For one experiment, the system named is C. albicans ATCC 10231. Description: Mitochondrial dehydrogenases activity, MTT reduction assay. In kind it is cell-based, Candida albicans. The note with it: 2 h. The procedure: In order to determine whether compound 1 could also affect mitochondrial function, MTT reduction assay was performed. In this assay, tetrazolium salts are reduced to purple formazan derivatives by mitochondrial dehydrogenases, which can be measured spectrophotometrically and reported to mitochondrial activity and, indirectly, to cell viability. In this assay, cells were exposed to the test compounds for 2 h ([FIG. 11]). […] An increase in reactive oxygen species (ROS) has been linked to azoles activity: even though their primary mode of action is the inhibition of ergosterol synthesis, they also induce accumulation of ROS, which enhances their antifungal activity and translates into an increase in mitochondrial activity at inhibitory concentrations. […] Mitochondrial dehydrogenase activity was evaluated by the MTT assay, as previously described, with some modifications. Cell suspensions of C. albicans ATCC 10231 were prepared in the same manner as described above and, after overnight incubation at 36° C., were centrifuged at 3500 rpm for 15 min, the supernatant was removed, and the cells were carefully resuspended in 2 mL of RPMI. Test conditions and controls were the same as described above, but the time of exposure to the test compounds was 2 h. After the exposure time, cell suspensions were centrifuged at 3500 rpm for 10 min, the supernatant was removed, and 500 μL of MTT solution (0.5 mg/mL in RPMI, at 35° C.) (Thiazolyl Blue Tetrazolium Bromide, Alfa Aesar, Ward Hill, MA, USA) were added. After a 1 h incubation at 35° C., the insoluble formazan product resulting from the conversion of MTT by mitochondrial dehydrogenases of metabolically active cells was solubilized with 300 μL of DMSO. 100 μL of each sample were transferred in duplicate to a microtiter plate and the extent of the reduction of MTT to formazan was quantified by measuring the absorbance at 570 nm. Three independent assays were performed in duplicate, and the results are expressed as percentage of MTT reduction, using the untreated cells as control.
(In general: Tetrazolium dyes change colour on reduction, which living cells bring about.)

A further experiment concerns A. fumigatus C111. Description: Antifungal MIC/MLC (broth microdilution). In kind it is cell-based, Aspergillus fumigatus. To be noted: A. fumigatus C111, resistant to azoles. As for the experimental part: The antifungal activity of compound 1 was evaluated for a wide range of fungal species, covering yeasts and filamentous fungi, including dermatophytes. […] This antimicrobial effect was fungicidal, with minimal lethal concentrations (MLC) being equal to, or one or two-fold higher than the respective MIC. Twenty-three fungal strains were used in this study, including reference strains and clinical isolates of yeasts and filamentous fungi. Yeast strains included reference strains (ATCC—American Type Culture Collection and CECT—Colección Española de Cultivos Tipo) and clinical isolates: C. albicans ATCC 10231, Candida krusei ATCC 6258, C. albicans H37, C. albicans FF172, C. albicans FF176, C. albicans DSY294, C. albicans DSY296, C. glabrata DSY562, C. glabrata DSY565 and Cryptococcus neoformans CECT 1078. Filamentous fungi included Aspergillus fumigatus ATCC 240305, A. fumigatus C111, A. niger ATCC 16404, A. flavus F44, Fusarium solani FF125, F. oxysporum FF115, and dermatophytes Trichophyton rubrum FF5, T. mentagrophytes FF7, Microscoporum canis FF1 and Nannizzia gypsea FF3 (formerly Microsporum gypseum) and a species of genera Mucor, Lichetheimia and Scedosporium. Saprolegnia parasitica CBS 223.65, a reference strain of an oomycete fish pathogen, was also included. All microorganisms were kept in Sabouraud Dextrose Broth (SDB: BioMérieux, Marcy L'Etoile, France) plus glycerol (20%) at −80° C. The strains were kept in Sabouraud Dextrose Agar (SDA: BioMérieux, Marcy L'Etoile, France) slants and were sub-cultured in SDA before each test. S. parasitica was kept in Corn Meal Agar plates (CMA: BBL™ Corn Meal Agar, BD, Le Pont-de-Claix, France) and was sub-cultured in CMA before each experiment. C. albicans H37, was kindly provided by Cidilia Pina Vaz (CHSJ, Porto, Portugal) and C. albicans DSY294, C. albicans DSY296, C. glabrata DSY562, C. glabrata DSY565 were kindly provided by D. Sanglard (University of Lausanne, Switzerland). A stock solution of compound 1 (10 mg/mL), was prepared in dimethyl sulfoxide (DMSO 99%: Alfa Aesar, Kandel, Germany), kept at −20 degrees C., and freshly diluted in the appropriate culture media before each assay. In all experiments, in-test concentrations of DMSO were kept below 2%. Fluconazole (Alfa Aesar, Ward Hill, MA, USA) was tested as commercial antifungal.
Antifungal activity was evaluated by determining the MIC of compound 1 by the broth microdilution method, according to CLSI guidelines (reference documents M27-A3 for yeasts and M38-A2 for filamentous fungi). […] The minimal lethal concentration (MLC) was determined by spreading 20 μL of culture collected from wells showing no visible growth on SDA plates. The MLC was determined as the lowest concentration showing complete growth inhibition after 48 h at 35 degrees C., 48 h at 25 degrees C. […]
In general terms: Dilution methods test growth across graded concentrations, often in twofold steps.

In brackets after ≈: the same amount, converted by molar mass. Like-named read-outs stand apart in the source and are kept apart here.

One may read the MIC as the least concentration at which growth counts as inhibited. `C[C@H](CCC(=O)NCCN)[C@H]1CC[C@H]2[C@@H]3CC[C@@H]4C[C@H](O)CC[C@]4(C)[C@H]3C[C@H](O)[C@]12C` [Compound 1, (R)—N-(2-aminoethyl)-4-((3R,5R,8R,9S,10S,12S,13R,14S,17R)-3,12-dihydroxy-10,13-dimethylhexadecahydro-1H-cyclopenta[a]phenanthren-17-yl) pentanamida]: in the experiment with C. albicans ATCC 10231 (128, 64, and 32 μg/mL (2×MIC, MIC, ½×MIC)), the “mitochondrial activity (MTT reduction) vs untreated control” value is reported as “significant reduction of mitochondrial activity”. In the experiment on A. fumigatus C111, this compound yielded an MIC of 128 mg/L (≈ 294 µM) and an MLC of more than 128 mg/L.

On to `OC(Cn1cncn1)(Cn1cncn1)c1ccc(F)cc1F` [Fluconazole, reference compound], for which the “mitochondrial activity (MTT reduction) vs untreated control” value with C. albicans ATCC 10231 (8 μg/mL) is listed as “increase (non-significant)”. The MLC in the experiment on A. fumigatus C111 was more than 128 mg/L. The MIC in the experiment on A. fumigatus C111 (Aspergillus fumigatus, read-out: MIC) is not below 128 mg/L.

The values are drawn from patent US20250002450A1, “CATIONIC STEROID COMPOUNDS, METHOD OF OBTAINING THEREOF, FORMULATIONS COMPRISING THEREOF AND THEIR USES” (UNIVERSIDADE DO PORTO, priority 2021, published 2025).
